The numbers were not newly measured in patent US10485764B2, “Lyophilized pharmaceutical compositions” (Otsuka Pharmaceutical Co., Ltd., priority 2015, dated 2019), which cites them from elsewhere.

In this data set the test system is HDAC. Conditions: in vitro or in vivo, from literature.
With `O=C(/C=C/c1cccc(C(=O)NO)c1)NO` [CBHA, m-carboxy-cinnamic acid bishydroxamic acid], the HDAC inhibition entry was “micromolar concentration or lower”.
As to `C/C=C1\NC(=O)[C@H]2CSSCC/C=C/[C@H](CC(=O)N[C@H](C(C)C)C(=O)N2)OC(=O)[C@H](C(C)C)NC1=O` [FR901228], the HDAC inhibition result is “micromolar concentrations”.
Consider depudecin, for which the HDAC inhibition result is “micromolar concentrations”.
For the molecule trichostatin A [TSA], the HDAC inhibition entry is listed as “potent inhibitor of mammalian HDAC”.
